# Assay results taken from PubChem BioAssay (NCI).
#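 All cell lines were grown in 96-well plates and treated with compound for 48 hours. TGI: concentration producing complete growth inhibition.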
# Key:
# Assay in all cases: DTP human tumour cell line panel, 48 h
# U251 CNS = test system: U251 CNS
# HS 578T breast = test system: HS 578T breast
# 786-0 renal = test system: 786-0 renal
# HT29 colon = test system: HT29 colon
# OVCAR-4 ovarian = test system: OVCAR-4 ovarian
# SF-295 CNS = test system: SF-295 CNS
# IGROV1 ovarian = test system: IGROV1 ovarian
# EKVX NSCLC = test system: EKVX NSCLC
# HCC-2998 colon = test system: HCC-2998 colon
# MCF7 breast = test system: MCF7 breast
# HOP-92 NSCLC = test system: HOP-92 NSCLC
# MDA-MB-435 = test system: MDA-MB-435
# HCT-116 colon = test system: HCT-116 colon
# SK-OV-3 ovarian = test system: SK-OV-3 ovarian
# NCI-H226 lung = test system: NCI-H226 lung
# SR leukemia = test system: SR leukemia
# A549 NSCLC = test system: A549 NSCLC
# UACC-62 melanoma = test system: UACC-62 melanoma
# SK-MEL-28 melanoma = test system: SK-MEL-28 melanoma
# RPMI-8226 leukemia = test system: RPMI-8226 leukemia
# OVCAR-3 ovarian = test system: OVCAR-3 ovarian
# SNB-75 CNS = test system: SNB-75 CNS
# ACHN renal = test system: ACHN renal
# SF-268 CNS = test system: SF-268 CNS
# MALME-3M melanoma = test system: MALME-3M melanoma
# BT-549 breast = test system: BT-549 breast
# MOLT-4 leukemia = test system: MOLT-4 leukemia
# SNB-19 CNS = test system: SNB-19 CNS
# SF-539 CNS = test system: SF-539 CNS
# DU-145 prostate = test system: DU-145 prostate
# OVCAR-8 ovarian = test system: OVCAR-8 ovarian
# UO-31 renal = test system: UO-31 renal
# MDA-N = test system: MDA-N
# T-47D breast = test system: T-47D breast
# NCI-H460 lung = test system: NCI-H460 lung
# PC-3 prostate = test system: PC-3 prostate
# NCI-H23 lung = test system: NCI-H23 lung
# HL-60(TB) leukemia = test system: HL-60(TB) leukemia
# KM12 colon = test system: KM12 colon
# SK-MEL-2 melanoma = test system: SK-MEL-2 melanoma
# A498 renal = test system: A498 renal
# SK-MEL-5 melanoma = test system: SK-MEL-5 melanoma
# SW-620 colon = test system: SW-620 colon
# OVCAR-5 ovarian = test system: OVCAR-5 ovarian
# M14 melanoma = test system: M14 melanoma
# NCI/ADR-RES ovarian = test system: NCI/ADR-RES ovarian
# UACC-257 melanoma = test system: UACC-257 melanoma
# LOX IMVI melanoma = test system: LOX IMVI melanoma
# CCRF-CEM leukemia = test system: CCRF-CEM leukemia
# HCT-15 colon = test system: HCT-15 colon
# COLO 205 colon = test system: COLO 205 colon
# RXF 393 renal = test system: RXF 393 renal
# CAKI-1 renal = test system: CAKI-1 renal
# MDA-MB-231 breast = test system: MDA-MB-231 breast
# K-562 leukemia = test system: K-562 leukemia
# TK-10 renal = test system: TK-10 renal
# NCI-H522 lung = test system: NCI-H522 lung
# SN12C renal = test system: SN12C renal
# HOP-62 NSCLC = test system: HOP-62 NSCLC
structure (smiles),measurement,setting,value
Clc1ccc(C2=CC(c3ccccc3)N3C(=N[C@H]4CCCC[C@@H]43)N2)cc1 (some centres undefined),TGI,U251 CNS,17.2 µM
same,TGI,HS 578T breast,23.6 µM
same,TGI,786-0 renal,10.9 µM
same,TGI,HT29 colon,10.2 µM
same,TGI,OVCAR-4 ovarian,18.4 µM
same,TGI,SF-295 CNS,20.3 µM
same,TGI,IGROV1 ovarian,13.6 µM
same,TGI,EKVX NSCLC,17.4 µM
same,TGI,HCC-2998 colon,5.08 µM
same,TGI,MCF7 breast,13.2 µM
same,TGI,HOP-92 NSCLC,17.2 µM
same,TGI,MDA-MB-435,20.4 µM
same,TGI,HCT-116 colon,11.6 µM
same,TGI,SK-OV-3 ovarian,27.9 µM
same,TGI,NCI-H226 lung,23 µM
same,TGI,SR leukemia,5.98 µM
same,TGI,A549 NSCLC,18.4 µM
same,TGI,UACC-62 melanoma,18.6 µM
same,TGI,SK-MEL-28 melanoma,11 µM
same,TGI,RPMI-8226 leukemia,7.02 µM
same,TGI,OVCAR-3 ovarian,19.3 µM
same,TGI,SNB-75 CNS,13.6 µM
same,TGI,ACHN renal,17.8 µM
same,TGI,SF-268 CNS,25.2 µM
same,TGI,MALME-3M melanoma,14.5 µM
same,TGI,BT-549 breast,21.3 µM
same,TGI,MOLT-4 leukemia,12.5 µM
same,TGI,SNB-19 CNS,17.6 µM
same,TGI,SF-539 CNS,19.6 µM
same,TGI,DU-145 prostate,20.7 µM
same,TGI,OVCAR-8 ovarian,11.4 µM
same,TGI,UO-31 renal,22.9 µM
same,TGI,MDA-N,18.9 µM
same,TGI,T-47D breast,21.6 µM
same,TGI,NCI-H460 lung,8.72 µM
same,TGI,PC-3 prostate,19.5 µM
same,TGI,NCI-H23 lung,20.6 µM
same,TGI,HL-60(TB) leukemia,7.79 µM
same,TGI,KM12 colon,8.79 µM
same,TGI,SK-MEL-2 melanoma,27.2 µM
same,TGI,A498 renal,22.2 µM
same,TGI,SK-MEL-5 melanoma,3.35 µM
same,TGI,SW-620 colon,15.4 µM
same,TGI,OVCAR-5 ovarian,23.6 µM
same,TGI,M14 melanoma,10.5 µM
same,TGI,NCI/ADR-RES ovarian,19.6 µM
same,TGI,UACC-257 melanoma,25.7 µM
same,TGI,LOX IMVI melanoma,19.7 µM
same,TGI,CCRF-CEM leukemia,> 100 µM
same,TGI,HCT-15 colon,15.5 µM
same,TGI,COLO 205 colon,4.23 µM
same,TGI,RXF 393 renal,8.44 µM
same,TGI,CAKI-1 renal,26.9 µM
same,TGI,MDA-MB-231 breast,22.1 µM
same,TGI,K-562 leukemia,> 100 µM
same,TGI,TK-10 renal,20 µM
Cc1c(C)c2c(c(N)c1C#N)C(=O)N(NC(=S)Nc1ccccc1)C2=O,TGI,U251 CNS,> 100 µM
same,TGI,HS 578T breast,> 100 µM
same,TGI,786-0 renal,> 100 µM
same,TGI,HT29 colon,> 100 µM
same,TGI,OVCAR-4 ovarian,> 100 µM
same,TGI,SF-295 CNS,> 100 µM
same,TGI,IGROV1 ovarian,> 100 µM
same,TGI,EKVX NSCLC,> 100 µM
same,TGI,HCC-2998 colon,> 100 µM
same,TGI,MCF7 breast,> 100 µM
same,TGI,HOP-92 NSCLC,> 100 µM
same,TGI,MDA-MB-435,> 100 µM
same,TGI,HCT-116 colon,> 100 µM
same,TGI,SK-OV-3 ovarian,> 100 µM
same,TGI,NCI-H522 lung,> 100 µM
same,TGI,NCI-H226 lung,> 100 µM
same,TGI,SR leukemia,83.5 µM
same,TGI,A549 NSCLC,> 100 µM
same,TGI,UACC-62 melanoma,> 100 µM
same,TGI,SK-MEL-28 melanoma,> 100 µM
same,TGI,RPMI-8226 leukemia,> 100 µM
same,TGI,OVCAR-3 ovarian,> 100 µM
same,TGI,SNB-75 CNS,> 100 µM
same,TGI,ACHN renal,> 100 µM
same,TGI,SF-268 CNS,> 100 µM
same,TGI,MALME-3M melanoma,> 100 µM
same,TGI,BT-549 breast,> 100 µM
same,TGI,MOLT-4 leukemia,> 100 µM
same,TGI,SNB-19 CNS,> 100 µM
same,TGI,SF-539 CNS,> 100 µM
same,TGI,DU-145 prostate,> 100 µM
same,TGI,OVCAR-8 ovarian,> 100 µM
same,TGI,SN12C renal,> 100 µM
same,TGI,UO-31 renal,> 100 µM
same,TGI,MDA-N,> 100 µM
same,TGI,T-47D breast,> 100 µM
same,TGI,NCI-H460 lung,> 100 µM
same,TGI,PC-3 prostate,> 100 µM
same,TGI,NCI-H23 lung,> 100 µM
same,TGI,HL-60(TB) leukemia,> 100 µM
same,TGI,KM12 colon,> 100 µM
same,TGI,SK-MEL-2 melanoma,> 100 µM
same,TGI,SK-MEL-5 melanoma,> 100 µM
same,TGI,SW-620 colon,> 100 µM
same,TGI,OVCAR-5 ovarian,> 100 µM
same,TGI,M14 melanoma,> 100 µM
same,TGI,NCI/ADR-RES ovarian,> 100 µM
same,TGI,UACC-257 melanoma,> 100 µM
same,TGI,CCRF-CEM leukemia,> 100 µM
same,TGI,HCT-15 colon,> 100 µM
same,TGI,COLO 205 colon,> 100 µM
same,TGI,RXF 393 renal,> 100 µM
same,TGI,CAKI-1 renal,88.1 µM
same,TGI,MDA-MB-231 breast,> 100 µM
same,TGI,K-562 leukemia,> 100 µM
same,TGI,TK-10 renal,> 100 µM
c1ccc(CN2CCC(CNc3ncnc4ccccc34)C2)cc1 (centres undefined),TGI,U251 CNS,> 100 µM
same,TGI,HS 578T breast,> 100 µM
same,TGI,786-0 renal,> 100 µM
same,TGI,HT29 colon,> 100 µM
same,TGI,OVCAR-4 ovarian,> 100 µM
same,TGI,SF-295 CNS,> 100 µM
same,TGI,IGROV1 ovarian,> 100 µM
same,TGI,EKVX NSCLC,> 100 µM
same,TGI,MCF7 breast,> 100 µM
same,TGI,HOP-92 NSCLC,> 100 µM
same,TGI,MDA-MB-435,> 100 µM
same,TGI,HCT-116 colon,> 100 µM
same,TGI,SK-OV-3 ovarian,> 100 µM
same,TGI,NCI-H522 lung,> 100 µM
same,TGI,NCI-H226 lung,> 100 µM
same,TGI,SR leukemia,65.1 µM
same,TGI,A549 NSCLC,> 100 µM
same,TGI,UACC-62 melanoma,> 100 µM
same,TGI,SK-MEL-28 melanoma,85.8 µM
same,TGI,RPMI-8226 leukemia,38.7 µM
same,TGI,OVCAR-3 ovarian,> 100 µM
same,TGI,SNB-75 CNS,> 100 µM
same,TGI,ACHN renal,> 100 µM
same,TGI,SF-268 CNS,> 100 µM
same,TGI,MALME-3M melanoma,43 µM
same,TGI,BT-549 breast,> 100 µM
same,TGI,MOLT-4 leukemia,> 100 µM
same,TGI,SNB-19 CNS,> 100 µM
same,TGI,SF-539 CNS,> 100 µM
same,TGI,DU-145 prostate,> 100 µM
same,TGI,OVCAR-8 ovarian,> 100 µM
same,TGI,SN12C renal,> 100 µM
same,TGI,UO-31 renal,> 100 µM
same,TGI,MDA-N,> 100 µM
same,TGI,T-47D breast,> 100 µM
same,TGI,NCI-H460 lung,> 100 µM
same,TGI,PC-3 prostate,> 100 µM
same,TGI,NCI-H23 lung,> 100 µM
same,TGI,HL-60(TB) leukemia,> 100 µM
same,TGI,KM12 colon,> 100 µM
same,TGI,SK-MEL-2 melanoma,> 100 µM
same,TGI,A498 renal,> 100 µM
same,TGI,SK-MEL-5 melanoma,82 µM
same,TGI,SW-620 colon,> 100 µM
same,TGI,OVCAR-5 ovarian,> 100 µM
same,TGI,M14 melanoma,35.4 µM
same,TGI,NCI/ADR-RES ovarian,> 100 µM
same,TGI,LOX IMVI melanoma,> 100 µM
same,TGI,CCRF-CEM leukemia,> 100 µM
same,TGI,HCT-15 colon,> 100 µM
same,TGI,COLO 205 colon,> 100 µM
same,TGI,RXF 393 renal,> 100 µM
same,TGI,CAKI-1 renal,> 100 µM
same,TGI,MDA-MB-231 breast,> 100 µM
same,TGI,HOP-62 NSCLC,> 100 µM
same,TGI,K-562 leukemia,> 100 µM
same,TGI,TK-10 renal,> 100 µM
